# Data: US10760110B2, “Antibiotic testing and screening system” (priority 2017, dated 2020)
# Read-outs that look alike come from different tables or passages of the source.
# Columns and labels:
# [1] = tested on: A. baumannii KW1 strains with β-lactamase plasmids; test: Etest MIC of β-lactams, extended-spectrum β-lactamase, AmpC β-lactamase or carbapenemase (Table 18); format: cell-based, Acinetobacter baumannii
# Method: (§1) DNA fragments of the resistance genes along with their flanking regions were amplified from clinical plasmids via PCR with specific primer pairs. The resulting PCR fragments were digested and then cloned into the plasmid pYMAb5 or pYMAb5Tc. The resulting plasmids were then transformed into A. baumannii KW1 via electroporation.
# (§2) The MICs of antibiotics were determined using the Etest (Biodisk AB, Sweden) according to the manufacturer's instructions. The MICs from the Etest, which fall between standard two-fold dilutions, were rounded up to the next highest two-fold value. The MICs of ceftazidime and cefotaxime against K. pneumoniae NVT1001 harbouring the pACYC177 plasmid with blaOXA-48 were further determined using a broth microdilution test according to the recommendations of the CLSI,^25 and the results were interpreted according to the breakpoints established by the CLSI in 2017.^25 Meanwhile, due to the lack of CLSI breakpoints in 2016 and 2017, the results for cephalothin were interpreted according to the breakpoints established by the CLSI in 2015,^26 and the results for moxifloxacin were interpreted according to the breakpoints established by the EUCAST in 2017.^27
# [2] = tested on: K. pneumoniae NVT1001 and its ΔompK35/36 and/or ΔramR mutants; test: Etest MIC, OmpK35/36 loss and AcrAB-TolC overexpression (ΔramR) strains (Table 6); format: cell-based, Klebsiella pneumoniae; conditions: Klebsiella pneumoniae
# Method: as §2
# [3] = tested on: A. baumannii KW1 strains with aminoglycoside resistance plasmids; test: Etest MIC of aminoglycosides, aminoglycoside-modifying enzyme or 16S rRNA methylase (Table 19); format: cell-based, Acinetobacter baumannii; conditions: production of aminoglycoside-modifying enzymes
# Method: as §1, §2
# [4] = tested on: K. pneumoniae NVT1001 ΔramRΔompK35/36 mutant and its revertants; test: Etest MIC, ΔramRΔompK35/36 mutant and its revertants (Table 7); format: cell-based; conditions: Klebsiella pneumoniae
# Source text: The allelic-exchange method was used to restore the wild-type gene in the K. pneumoniae NVT1001 mutants with constructed chromosome-mediated resistance mechanisms, as described by Tsai et al.^19 Briefly, a DNA fragment of the entire wild-type gene sequence along with flanking regions was amplified from K. pneumoniae NVT1001 using PCR with specific primers. The resulting PCR fragment was digested and then cloned into pUT-KB. For homologous recombination, this plasmid was transformed into E. coli S17-1 λpir^23 via electroporation and mobilized into the K. pneumoniae NVT1001 mutant via conjugation. […] After incubation in 20 mL BHI broth for 6 hours at 37° C. in the absence of kanamycin, the fully grown cultures were spread onto LB agar plates supplemented with 10% sucrose. After the double crossover occurred, the sucrose-resistant and kanamycin-susceptible colonies were selected, and the restoration of the wild-type gene was confirmed via DNA sequencing.
# as §2
# [5] = tested on: K. pneumoniae NVT1001 strains with Sul/Dfr plasmids; test: Etest MIC of folate pathway inhibitors, OmpK35/36 loss, ΔramR and/or drug-resistant target enzyme (Table 15); format: cell-based, Klebsiella pneumoniae; conditions: for MIC: Klebsiella pneumoniae
# Method: DNA fragments of the resistance genes along with their flanking regions were amplified from clinical plasmids via PCR with specific primer pairs. The resulting PCR fragments were digested and then cloned into the plasmid pACYC177 or pACYC184. The resulting plasmids were then transformed into K. pneumoniae strain NVT1001 via electroporation. The recombinant bacteria were plated onto LB agar plates containing kanamycin (50 mg/L) or chloramphenicol (50 mg/L), and the presence of the cloned gene was confirmed via PCR and DNA sequencing.
# as §2
# [6] = ΔramRΔ35/36, ΔramRΔompK35/36 mutant
smiles,measurement,setting,value
C[C@@H](O)[C@H]1C(=O)N2C(C(=O)O)=C(S[C@@H]3CN[C@H](C(=O)N(C)C)C3)[C@H](C)[C@H]12 [MP],MIC,"[1]; KW1, no supplemental plasmid",0.5 µg/mL
same,MIC,[1]; KW1 with ADC-30 on pYMAb5,3 µg/mL
same,MIC,[1]; KW1 with CTX-M-15 on pYMAb5,2 µg/mL
same,MIC,[1]; KW1 with IMP-1 on pYMAb5,12 µg/mL
same,MIC,[1]; KW1 with NDM-1 on pYMAb5,>32 µg/mL
same,MIC,[1]; KW1 with OXA-23 on pYMAb5,>32 µg/mL
same,MIC,[1]; KW1 with OXA-58 on pYMAb5,6 µg/mL
same,MIC,[1]; KW1 with OXA-66 on pYMAb5,8 µg/mL
same,MIC,[1]; KW1 with OXA-72 on pYMAb5,>32 µg/mL
same,MIC,[1]; KW1 with VEB-3 on pYMAb5,0.5 µg/mL
same,MIC,[1]; KW1 with VIM-1 on pYMAb5,>32 µg/mL
same,MIC,[1]; KW1 with shuttle vector pYMAb5,0.5 µg/mL
CCN[C@@H]1C[C@H](N)[C@@H](O[C@H]2OC(CN)=CC[C@H]2N)[C@H](O)[C@H]1O[C@H]1OC[C@](C)(O)[C@H](NC)[C@H]1O [Netilmicin],MIC,"[2]; WT, NVT1001, read-out: MIC",0.5 µg/mL
same,MIC,"[2]; Δ35, ΔompK35 mutant",0.5 µg/mL
same,MIC,"[2]; Δ35/36, ΔompK35/36 mutant",0.5 µg/mL
same,MIC,"[2]; Δ36, ΔompK36 mutant",0.5 µg/mL
same,MIC,[2]; ΔramR mutant,0.5 µg/mL
same,MIC,"[2]; ΔramRΔ35, ΔramRΔompK35 mutant",0.25 µg/mL
same,MIC,[2]; [6],0.5 µg/mL
same,MIC,"[2]; ΔramRΔ36, ΔramRΔompK36 mutant",0.5 µg/mL
same,effects on the MIC,[3],no increase effects
CCN1CCN(C(=O)N[C@@H](C(=O)N[C@@H]2C(=O)N3[C@@H]2SC(C)(C)[C@@H]3C(=O)O)c2ccccc2)C(=O)C1=O [PP],MIC,"[1]; KW1, no supplemental plasmid",12 µg/mL
same,MIC,[1]; KW1 with ADC-30 on pYMAb5,>256 µg/mL
same,MIC,[1]; KW1 with CTX-M-15 on pYMAb5,>256 µg/mL
same,MIC,[1]; KW1 with IMP-1 on pYMAb5,16 µg/mL
same,MIC,[1]; KW1 with NDM-1 on pYMAb5,>256 µg/mL
same,MIC,[1]; KW1 with OXA-23 on pYMAb5,>256 µg/mL
same,MIC,[1]; KW1 with OXA-58 on pYMAb5,128 µg/mL
same,MIC,[1]; KW1 with OXA-66 on pYMAb5,64 µg/mL
same,MIC,[1]; KW1 with OXA-72 on pYMAb5,>256 µg/mL
same,MIC,[1]; KW1 with VEB-3 on pYMAb5,12 µg/mL
same,MIC,[1]; KW1 with VIM-1 on pYMAb5,>256 µg/mL
same,MIC,[1]; KW1 with shuttle vector pYMAb5,12 µg/mL
COc1cc(Cc2cnc(N)nc2N)cc(OC)c1OC [Trimethoprim],MIC,"[2]; WT, NVT1001, read-out: MIC",2 µg/mL
same,MIC,"[2]; Δ35, ΔompK35 mutant",2 µg/mL
same,MIC,"[2]; Δ35/36, ΔompK35/36 mutant",2 µg/mL
same,MIC,"[2]; Δ36, ΔompK36 mutant",2 µg/mL
same,MIC,[2]; ΔramR mutant,8 µg/mL
same,MIC,"[2]; ΔramRΔ35, ΔramRΔompK35 mutant",8 µg/mL
same,MIC,[2]; [6],> 32 µg/mL
same,MIC,"[2]; ΔramRΔ36, ΔramRΔompK36 mutant",16 µg/mL
same,MIC,[4]; ΔramRΔompK35/36::ompK35/36 revertant,8 µg/mL
same,MIC,[4]; ΔramRΔompK35/36::ompK35 revertant,8 µg/mL
same,MIC,[4]; ΔramRΔompK35/36::ompK36 revertant,8 µg/mL
same,MIC,[4]; ΔramRΔompK35/36::ramR revertant,2 µg/mL
same,MIC,[4]; ΔramRΔompK35/36::ramR::ompK35/36 revertant,2 µg/mL
same,MIC,[4]; ΔramRΔompK35/36::ramR::ompK35 revertant,2 µg/mL
same,MIC,[4]; ΔramRΔompK35/36::ramR::ompK36 revertant,2 µg/mL
same,MIC,[4]; ΔramRΔompK35/36 mutant,> 32 µg/mL
same,MIC,"[5]; DfrA1 on pACYC177, WT (NVT1001), read-out: MIC",> 32 µg/mL
same,MIC,"[5]; DfrA1 on pACYC177, ΔompK35/36 mutant",> 32 µg/mL
same,MIC,"[5]; DfrA1 on pACYC177, ΔompK35 mutant",> 32 µg/mL
same,MIC,"[5]; DfrA1 on pACYC177, ΔompK36 mutant",> 32 µg/mL
same,MIC,"[5]; DfrA1 on pACYC177, ΔramR mutant",> 32 µg/mL
same,MIC,"[5]; DfrA1 on pACYC177, ΔramRΔompK35/36 mutant",> 32 µg/mL
same,MIC,"[5]; DfrA1 on pACYC177, ΔramRΔompK35 mutant",> 32 µg/mL
same,MIC,"[5]; DfrA1 on pACYC177, ΔramRΔompK36 mutant",> 32 µg/mL
same,MIC,"[5]; DfrA16 on pACYC177, WT (NVT1001), read-out: MIC",> 32 µg/mL
same,MIC,"[5]; DfrA16 on pACYC177, ΔompK35/36 mutant",> 32 µg/mL
same,MIC,"[5]; DfrA16 on pACYC177, ΔompK35 mutant",> 32 µg/mL
same,MIC,"[5]; DfrA16 on pACYC177, ΔompK36 mutant",> 32 µg/mL
same,MIC,"[5]; DfrA16 on pACYC177, ΔramR mutant",> 32 µg/mL
same,MIC,"[5]; DfrA16 on pACYC177, ΔramRΔompK35/36 mutant",> 32 µg/mL
same,MIC,"[5]; DfrA16 on pACYC177, ΔramRΔompK35 mutant",> 32 µg/mL
same,MIC,"[5]; DfrA16 on pACYC177, ΔramRΔompK36 mutant",> 32 µg/mL
same,MIC,"[5]; Sul1 on pACYC177, WT (NVT1001), read-out: MIC",2 µg/mL
same,MIC,"[5]; Sul1 on pACYC177, ΔompK35/36 mutant",4 µg/mL
same,MIC,"[5]; Sul1 on pACYC177, ΔompK35 mutant",2 µg/mL
same,MIC,"[5]; Sul1 on pACYC177, ΔompK36 mutant",2 µg/mL
same,MIC,"[5]; Sul1 on pACYC177, ΔramR mutant",16 µg/mL
same,MIC,"[5]; Sul1 on pACYC177, ΔramRΔompK35/36 mutant",> 32 µg/mL
same,MIC,"[5]; Sul1 on pACYC177, ΔramRΔompK35 mutant",32 µg/mL
same,MIC,"[5]; Sul1 on pACYC177, ΔramRΔompK36 mutant",> 32 µg/mL
same,MIC,"[5]; Sul2 on pACYC177, WT (NVT1001), read-out: MIC",2 µg/mL
same,MIC,"[5]; Sul2 on pACYC177, ΔompK35/36 mutant",4 µg/mL
same,MIC,"[5]; Sul2 on pACYC177, ΔompK35 mutant",4 µg/mL
same,MIC,"[5]; Sul2 on pACYC177, ΔompK36 mutant",4 µg/mL
same,MIC,"[5]; Sul2 on pACYC177, ΔramR mutant",16 µg/mL
same,MIC,"[5]; Sul2 on pACYC177, ΔramRΔompK35/36 mutant",> 32 µg/mL
same,MIC,"[5]; Sul2 on pACYC177, ΔramRΔompK35 mutant",32 µg/mL
same,MIC,"[5]; Sul2 on pACYC177, ΔramRΔompK36 mutant",32 µg/mL
same,MIC,"[5]; no supplemental plasmid, WT (NVT1001), read-out: MIC",2 µg/mL
same,MIC,"[5]; no supplemental plasmid, ΔompK35/36 mutant",2 µg/mL
same,MIC,"[5]; no supplemental plasmid, ΔompK35 mutant",2 µg/mL
same,MIC,"[5]; no supplemental plasmid, ΔompK36 mutant",2 µg/mL
same,MIC,"[5]; no supplemental plasmid, ΔramR mutant",8 µg/mL
same,MIC,"[5]; no supplemental plasmid, ΔramRΔompK35/36 mutant",> 32 µg/mL
same,MIC,"[5]; no supplemental plasmid, ΔramRΔompK35 mutant",8 µg/mL
same,MIC,"[5]; no supplemental plasmid, ΔramRΔompK36 mutant",16 µg/mL
same,effects on the MIC,[5]; strains with porin loss and/or Sul production,no significant (≥4-fold) effects
